Patent US9617602B2, “Methods and compositions for determining resistance to androgen receptor therapy” (Aragon Pharmaceuticals, Inc., priority 2012, dated 2017)

Columns and labels:
[1] = test system: Class 1 ARN-509- and MDV3100-resistant cell lines; test: Proliferation assay (CellTiter-Glo), agonist and antagonist mode; format: cell-based, human
LNCaP/AR(cs) cells = test: Endogenous gene transcriptional assay (real-time PCR of androgen responsive genes); format: cell-based, human;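 for ORM1 expression, agonist transcription: LNCaP/AR(cs) cells without added R1881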;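 for PLD1 expression, agonist transcription: LNCaP/AR(cs) cells without added R1881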;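 for PSA expression, agonist transcription: LNCaP/AR(cs) cells without added R1881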;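 for SLUG expression, agonist transcription: LNCaP/AR(cs) cells without added R1881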;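 for TMPRSS2 expression, agonist transcription: LNCaP/AR(cs) cells without added R1881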
Description: (§1) Total RNA was isolated using the Aurum™ total RNA isolation kit (BIO-RAD, Hercules, Calif.). RNA (1 μg) was reverse transcribed using the iScript cDNA synthesis kit (BIO-RAD, Hercules, Calif.) to produce cDNA. Real-time PCR was performed using the Applied Biosystems 7900HT instrument and SYBR Green PCR Master Mix (Applied Biosystems, Foster City, Calif.). PCR reactions were performed in 6 μL according to the manufacturer's protocol and a thermocycle protocol of 95° C. for 10 minutes followed by 40 cycles of 95° C. for 15 seconds and 58° C. for 1 minute. Androgen responsive gene (PSA, SLUG, TMPRSS2, STEAP4, FKBP5, ORM1, NOV, FASN, NKX3.1, AMIGO2, BDNF, CAMK2N1, HPGD, NCAPD3, PLD1) expression was normalized to GAPDH expression and expressed relative to vehicle treatment of the parental cell line.
(§2) Gene expression was normalized to GAPDH as described above.

LNCaP ARN-509r2 cells = test: as above; format: cell-based, human; conditions: 1 nM R1881 or 30 μM compound, vehicle=1.00
Description: as §1, §2

[2] = test system: LNCaP/AR(cs) xenograft tumors; test: Tumor xenograft in castrated SHO male mice; format: in vivo
[3] = Table 4A, 1 nM R1881 or 30 μM compound, vehicle=1.00

## CNC(=O)c1ccc(N2C(=S)N(c3cnc(C#N)c(C(F)(F)F)c3)C(=O)C23CCC3)cc1F [ARN-509]
[1]
  Effect on growth inhibitory activity of R1881 in Class 1 cells: antagonized
[1]; Homo sapiens, 168 h, read-out: Antagonist Proliferation Assay (% Viability)
  viability at 0.0001 µM: > 30%
[1]; absence of added androgens
  Ligand independent growth of Class 1 cells in presence of compound: unaltered
LNCaP/AR(cs) cells; +1 nM R1881, 0.3 μM
  AMIGO2 expression, antagonist transcription: 0.30
  BDNF expression, antagonist transcription: 0.43
  CAM2KN1 expression, antagonist transcription: 0.04
  FASN expression, antagonist transcription: 1.92
  FKBP5 expression, antagonist transcription: 33.14
  HPGD expression, antagonist transcription: 105.97
  NCAPD3 expression, antagonist transcription: 43.93
  NKX3.1 expression, antagonist transcription: 8.32
  NOV expression, antagonist transcription: 0.03
  ORM1 expression, antagonist transcription: 5100.90
  PLD1 expression, antagonist transcription: 0.02
  PSA expression, antagonist transcription: 19.09
  SLUG expression, antagonist transcription: 71.33
  STEAP4 expression, antagonist transcription: 1019.98
  TMPRSS2 expression, antagonist transcription: 19.07
LNCaP/AR(cs) cells; +1 nM R1881, 1 μM
  AMIGO2 expression, antagonist transcription: 0.31
  BDNF expression, antagonist transcription: 0.35
  CAM2KN1 expression, antagonist transcription: 0.06
  FASN expression, antagonist transcription: 1.52
  FKBP5 expression, antagonist transcription: 22.49
  HPGD expression, antagonist transcription: 76.25
  NCAPD3 expression, antagonist transcription: 32.00
  NKX3.1 expression, antagonist transcription: 9.92
  NOV expression, antagonist transcription: 0.09
  ORM1 expression, antagonist transcription: 2679.73
  PLD1 expression, antagonist transcription: 0.02
  PSA expression, antagonist transcription: 21.75
  SLUG expression, antagonist transcription: 62.00
  STEAP4 expression, antagonist transcription: 742.61
  TMPRSS2 expression, antagonist transcription: 24.11
LNCaP/AR(cs) cells; +1 nM R1881, 3 μM
  AMIGO2 expression, antagonist transcription: 0.52
  BDNF expression, antagonist transcription: 0.67
  CAM2KN1 expression, antagonist transcription: 0.19
  FASN expression, antagonist transcription: 1.08
  FKBP5 expression, antagonist transcription: 12.56
  HPGD expression, antagonist transcription: 32.19
  NCAPD3 expression, antagonist transcription: 15.57
  NKX3.1 expression, antagonist transcription: 12.01
  NOV expression, antagonist transcription: 0.31
  ORM1 expression, antagonist transcription: 1031.40
  PLD1 expression, antagonist transcription: 0.04
  PSA expression, antagonist transcription: 23.57
  SLUG expression, antagonist transcription: 50.70
  STEAP4 expression, antagonist transcription: 256.89
  TMPRSS2 expression, antagonist transcription: 23.38
LNCaP/AR(cs) cells; +1 nM R1881, 10 μM
  AMIGO2 expression, antagonist transcription: 0.60
  BDNF expression, antagonist transcription: 0.74
  CAM2KN1 expression, antagonist transcription: 0.43
  FASN expression, antagonist transcription: 0.60
  FKBP5 expression, antagonist transcription: 2.74
  HPGD expression, antagonist transcription: 8.36
  NCAPD3 expression, antagonist transcription: 2.39
  NKX3.1 expression, antagonist transcription: 7.22
  NOV expression, antagonist transcription: 0.86
  ORM1 expression, antagonist transcription: 156.90
  PLD1 expression, antagonist transcription: 0.11
  PSA expression, antagonist transcription: 12.90
  SLUG expression, antagonist transcription: 11.15
  STEAP4 expression, antagonist transcription: 32.98
  TMPRSS2 expression, antagonist transcription: 11.45
LNCaP/AR(cs) cells; +1 nM R1881, 30 μM
  AMIGO2 expression, antagonist transcription: 0.76
  BDNF expression, antagonist transcription: 0.88
  CAM2KN1 expression, antagonist transcription: 0.42
  FASN expression, antagonist transcription: 0.64
  FKBP5 expression, antagonist transcription: 1.08
  HPGD expression, antagonist transcription: 2.78
  NCAPD3 expression, antagonist transcription: 0.96
  NKX3.1 expression, antagonist transcription: 5.49
  NOV expression, antagonist transcription: 0.82
  ORM1 expression, antagonist transcription: 16.42
  PLD1 expression, antagonist transcription: 0.32
  PSA expression, antagonist transcription: 7.20
  SLUG expression, antagonist transcription: 5.49
  STEAP4 expression, antagonist transcription: 6.86
  TMPRSS2 expression, antagonist transcription: 5.94
LNCaP/AR(cs) cells; [3]
  AMIGO2 gene expression: 0.72
  BDNF gene expression: 0.85
  CAM2KN1 gene expression: 0.80
  FASN gene expression: 0.75
  FKBP5 gene expression: 0.99
  HPGD gene expression: 1.18
  NCAPD3 gene expression: 0.91
  NKX3.1 gene expression: 1.13
  NOV gene expression: 1.04
  ORM1 gene expression: 0.84
  PLD1 gene expression: 1.04
  PSA gene expression: 1.43
  SLUG gene expression: 1.03
  STEAP4 gene expression: 0.90
  TMPRSS2 gene expression: 1.06
LNCaP/AR(cs) cells; −R1881, 0.3 μM
  AMIGO2 expression, agonist transcription: 1.14
  BDNF expression, agonist transcription: 1.15
  CAM2KN1 expression, agonist transcription: 0.90
  FASN expression, agonist transcription: 0.46
  FKBP5 expression, agonist transcription: 0.99
  HPGD expression, agonist transcription: 0.81
  NCAPD3 expression, agonist transcription: 0.72
  NKX3.1 expression, agonist transcription: 1.11
  NOV expression, agonist transcription: 1.12
  ORM1 expression, agonist transcription: 1.37
  PLD1 expression, agonist transcription: 1.28
  PSA expression, agonist transcription: 0.44
  SLUG expression, agonist transcription: 0.38
  STEAP4 expression, agonist transcription: 0.94
  TMPRSS2 expression, agonist transcription: 0.99
LNCaP/AR(cs) cells; −R1881, 1 μM
  AMIGO2 expression, agonist transcription: 0.69
  BDNF expression, agonist transcription: 0.93
  CAM2KN1 expression, agonist transcription: 0.76
  FASN expression, agonist transcription: 0.40
  FKBP5 expression, agonist transcription: 0.71
  HPGD expression, agonist transcription: 0.56
  NCAPD3 expression, agonist transcription: 0.74
  NKX3.1 expression, agonist transcription: 0.68
  NOV expression, agonist transcription: 1.00
  ORM1 expression, agonist transcription: 1.79
  PLD1 expression, agonist transcription: 0.66
  PSA expression, agonist transcription: 0.49
  SLUG expression, agonist transcription: 0.42
  STEAP4 expression, agonist transcription: 0.77
  TMPRSS2 expression, agonist transcription: 0.64
LNCaP/AR(cs) cells; −R1881, 3 μM
  AMIGO2 expression, agonist transcription: 0.89
  BDNF expression, agonist transcription: 1.03
  CAM2KN1 expression, agonist transcription: 0.99
  FASN expression, agonist transcription: 0.42
  FKBP5 expression, agonist transcription: 0.91
  HPGD expression, agonist transcription: 0.78
  NCAPD3 expression, agonist transcription: 0.73
  NKX3.1 expression, agonist transcription: 0.73
  NOV expression, agonist transcription: 1.11
  ORM1 expression, agonist transcription: 1.20
  PLD1 expression, agonist transcription: 0.88
  PSA expression, agonist transcription: 0.58
  SLUG expression, agonist transcription: 0.52
  STEAP4 expression, agonist transcription: 1.05
  TMPRSS2 expression, agonist transcription: 1.04
LNCaP/AR(cs) cells; −R1881, 10 μM
  AMIGO2 expression, agonist transcription: 0.65
  BDNF expression, agonist transcription: 1.03
  CAM2KN1 expression, agonist transcription: 0.78
  FASN expression, agonist transcription: 0.41
  FKBP5 expression, agonist transcription: 0.75
  HPGD expression, agonist transcription: 0.61
  NCAPD3 expression, agonist transcription: 0.74
  NKX3.1 expression, agonist transcription: 0.85
  NOV expression, agonist transcription: 0.98
  ORM1 expression, agonist transcription: 0.97
  PLD1 expression, agonist transcription: 0.65
  PSA expression, agonist transcription: 0.61
  SLUG expression, agonist transcription: 0.56
  STEAP4 expression, agonist transcription: 0.56
  TMPRSS2 expression, agonist transcription: 0.62
LNCaP/AR(cs) cells; −R1881, 30 μM
  AMIGO2 expression, agonist transcription: 2.41
  BDNF expression, agonist transcription: 1.80
  CAM2KN1 expression, agonist transcription: 1.56
  FASN expression, agonist transcription: 1.30
  FKBP5 expression, agonist transcription: 1.87
  HPGD expression, agonist transcription: 1.86
  NCAPD3 expression, agonist transcription: 1.34
  NKX3.1 expression, agonist transcription: 2.24
  NOV expression, agonist transcription: 2.07
  ORM1 expression, agonist transcription: 1.35
  PLD1 expression, agonist transcription: 1.33
  PSA expression, agonist transcription: 1.13
  SLUG expression, agonist transcription: 1.36
  STEAP4 expression, agonist transcription: 1.01
  TMPRSS2 expression, agonist transcription: 2.78
LNCaP ARN-509r2 cells
  AMIGO2 gene expression: 0.67
  BDNF gene expression: 1.04
  CAM2KN1 gene expression: 0.46
  FASN gene expression: 0.98
  FKBP5 gene expression: 8.00
  HPGD gene expression: 1.49
  NKX3.1 gene expression: 3.73
  NOV gene expression: 1.39
  ORM1 gene expression: 3.94
  PLD1 gene expression: 0.81
  PSA gene expression: 1.91
  SLUG gene expression: 1.31
  STEAP4 gene expression: 1.45
  TMPRSS2 gene expression: 3.07
[2]; 30 mg/kg QD orally, castrated SHO mice, initial response
  Effect on LNCaP/AR(cs) xenograft tumors (Example 1): induced tumor regression
[2]; 30 mg/kg/day oral gavage, castrate male mice
  Anti-tumor activity in the LNCaP/AR(cs) model (Example 14): robust anti-tumor activity
